Measured values as given in patent publication US20100022483A1, “Substituted Tetracycline Compounds” (Paratek Pharmaceuticals, Inc., priority 2008, published 2010).
In brackets after ≈: the same amount, converted by molar mass. Read-outs that look alike come from different tables or passages of the source.

Columns and labels:
[1] = system: gram positive bacteria; assay: In vitro anti-bacterial activity assay (broth dilution MIC), gram positive bacteria; assay type: cell-based, S. aureus; conditions: 18 h
Excerpt: (§1) Bacterial infections may be caused by a wide variety of gram positive and gram negative bacteria. Some of the compounds of the invention are useful as antibiotics against organisms which are resistant and/or sensitive to other tetracycline compounds. The antibiotic activity of the tetracycline compounds of the invention may by using the in vitro standard broth dilution method described in Waitz, J. A., CLSI, Document M7-A2, vol. 10, no. 8, pp. 13-20, 2nd edition, Villanova, Pa. (1990).
(§2) The following assay was used to determine the efficacy of the tetracycline compounds against gram positive and gram negative bacteria. 2 mg of each compound was dissolved in 100 μl of DMSO. […] The tetracycline compound solutions were diluted to 50 μL volumes, with a test compound concentration of 0.098 μg/ml. Optical density (OD) determinations were made from fresh log-phase broth cultures of the test strains. Dilutions were made to achieve a final cell density of […] CFU/ml. At OD=1, cell densities for different genera were approximately:
(§3) 50 μl of the cell suspensions were added to each well of microtiter plates. The final cell density was approximately 5×10^5 CFU/ml. These plates were incubated at 35° C. in an ambient air incubator for approximately 18 hours. The plates were read with a microplate reader and were visually inspected when necessary. The MIC was defined as the lowest concentration of the tetracycline compound that inhibits growth. Table 3 includes MIC data for several substituted tetracycline compounds.

[2] = system: gram negative bacteria; assay: In vitro anti-bacterial activity assay (broth dilution MIC), gram negative bacteria; assay type: cell-based, E. coli
Excerpt: as §1, §2, §3

[3] = Mammalian cytotoxicity assay (resazurin), COS-1 cells; assay type: cell-based; conditions: African green monkey, read-out: Cytotox. COS-1
Description: (§4) COS-1 and CHO-K1 cell suspensions were prepared, seeded into 96-well tissue culture treated black-walled microtiter plates (density determined by cell line), and incubated overnight at 37° C., in 5% CO2 and approximately 95% humidity. The following day, serial dilutions of compound were prepared under sterile conditions and transferred to cell plates. Cell/Compound plates were incubated under the above conditions for 24 hours. Following the incubation period, media/compound was aspirated and 50 μl of resazurin (0.042 mg/ml in PBS w/Ca and Mg) is added. The plates were then incubated under the above conditions for 2 hours and then placed in the dark at room temperature for an additional 30 minutes. Fluorescence measurements were taken (excitation 535 nm, emission 590 nm). The IC50 (concentration of compound causing 50% growth inhibition) was then calculated. Table 3 includes IC50 data for several substituted tetracycline compounds.

[4] = in vitro; assay type: cell-based; conditions: Chinese hamster, Cytotox. CHO-K1
Description: as §4

[5] = system: 3T3 fibroblast cells; assay: In vitro phototoxicity assay (neutral red; UV light-treated vs dark control plates); assay type: cell-based; conditions: for Photo Toxicity UV Tox50: UV light 50 minutes; for Photo Toxicity Dark Tox50: dark control plate
Description: 3T3 fibroblast cells were harvested and plated at a concentration of 1×10^5 cells/mL and the plates were incubated overnight at 37° C., in 5% CO2 and approximately 95% humidity. On the following day the medium was removed from the plates and replaced with Hanks' Balanced Salt Solution (HBSS). Compound dilutions were made in HBSS and added to the plates. For each compound tested, a duplicate plate was prepared that was not exposed to light as a control for compound toxicity. Plates were then incubated in a dark drawer (for controls), or under UV light (meter reading of 1.6-1.8 mW/cm^2) for 50 minutes. Cells were then washed with HBSS, fresh medium was added, and plates were incubated overnight as described above. The following day neutral red was added as an indicator of cell viability. The plates were then incubated for an additional 3 hours. Cells were then washed with HBSS and blotted on absorbent paper to remove excess liquid. A solution of 50% EtOH, 10% glacial acetic acid was added and after 20 minutes incubation the plate's absorbance at 535 nm was read using a Wallac Victor 5 spectrophotometer. The phototoxicity reflected the difference between the light-treated and control cultures. Table 3 includes phototoxicity (μM) data for several substituted tetracycline compounds.

[6] = Staphylococcus aureus, S. aureus MRSA5, read-out: Median MIC's G+ S. aureus MRSA5
[7] = Staphylococcus aureus, S. aureus RN450, read-out: Median MIC's G+ S. aureus RN450
[8] = Streptococcus pneumoniae, S. pneumoniae 157E-Strep, read-out: Median MIC's G+ S. pneumoniae 157E-Strep
[9] = Escherichia coli, 18 h, E. coli D1 209, read-out: Median MIC's G− E. coli D1 209
[10] = Escherichia coli, 18 h, E. coli MG 1655, read-out: Median MIC's G− E. coli MG 1655
[11] = Escherichia coli, ATCC25922, 18 h, E. coli ATCC 25922, read-out: Median MIC's G− E. coli ATCC 25922
[12] = Pseudomonas aeruginosa, 18 h, P. aeruginosa K201 PAO6609, read-out: Median MIC's G− P. aeruginosa K201 PAO6609

Structure (SMILES)	MIC [1, 6] [µg/mL]	MIC [1, 7] [µg/mL]	MIC [1, 8] [µg/mL]	MIC [2, 9] [µg/mL]	IC50 at 24 h [3] [µM]	IC50 at 24 h [4] [µM]	Photo Toxicity UV Tox50 [5] [µM]	Photo Toxicity Dark Tox50 [5] [µM]	MIC [2, 10] [µg/mL]	MIC [2, 11] [µg/mL]	MIC [2, 12] [µg/mL]	MIC ([2]; Escherichia coli, 18 h, read-out: Median MIC's G− E. coli D1 209, E. coli D1 209) [µg/mL]
COc1ccc(CNCc2ccc(-c3ccc(O)c4c3C[C@H]3C[C@H]5[C@H](N(C)C)C(O)=C(C(N)=O)C(=O)[C@@]5(O)C(O)=C3C4=O)cc2)cc1 (stereo in doubt) [AW]	1 (≈ 1.56 µM)	0.06 (≈ 0.0938 µM)	0.06 (≈ 0.0938 µM)	1 (≈ 1.56 µM)	< 1.97	13.5						
CO/N=C/c1ccc(-c2ccc(O)c3c2C[C@H]2C[C@H]4[C@H](N(C)C)C(O)=C(C(N)=O)C(=O)[C@@]4(O)C(O)=C2C3=O)o1 (stereo in doubt) [AZ]	1 (≈ 1.86 µM)	0.13 (≈ 0.242 µM)	0.06 (≈ 0.112 µM)	64 (≈ 119 µM)	< 2.44	3.04	>156.79	>156.79				
CN(C)[C@H]1C(O)=C(C(N)=O)C(=O)[C@@]2(O)C(O)=C3C(=O)c4c(O)ccc(-c5cccc(C(N)=O)c5)c4C[C@H]3C[C@@H]12 (stereo in doubt) [B]	64 (≈ 120 µM)	2 (≈ 3.75 µM)	2 (≈ 3.75 µM)	64 (≈ 120 µM)	> 15.7	> 15.7	>156.64	>156.64	64 (≈ 120 µM)	64 (≈ 120 µM)	64 (≈ 120 µM)	
CN(C)CCNC(=O)c1cccc(-c2ccc(O)c3c2C[C@H]2C[C@H]4[C@H](N(C)C)C(O)=C(C(N)=O)C(=O)[C@@]4(O)C(O)=C2C3=O)c1 [AB]	32 (≈ 52.9 µM)	0.5 (≈ 0.827 µM)	0.25 (≈ 0.413 µM)	64 (≈ 106 µM)	> 200	> 200	>200	>200	16 (≈ 26.5 µM)	32 (≈ 52.9 µM)	64 (≈ 106 µM)	
CN(C)C(=O)c1cccc(-c2ccc(O)c3c2C[C@H]2C[C@H]4[C@H](N(C)C)C(O)=C(C(N)=O)C(=O)[C@@]4(O)C(O)=C2C3=O)c1 [AC]	16 (≈ 28.5 µM)	0.25 (≈ 0.445 µM)		64 (≈ 114 µM)	> 37.6	> 9.4						
CN(C)CCNC(=O)c1ccc(-c2ccc(O)c3c2C[C@H]2C[C@H]4[C@H](N(C)C)C(O)=C(C(N)=O)C(=O)[C@@]4(O)C(O)=C2C3=O)cc1 [AD]	16 (≈ 26.5 µM)	0.25 (≈ 0.413 µM)	0.13 (≈ 0.215 µM)	64 (≈ 106 µM)	> 43.5	> 43.5	135.17	>140.2	8 (≈ 13.2 µM)	16 (≈ 26.5 µM)	64 (≈ 106 µM)	
CN(C)[C@@H]1C(O)=C(C(N)=O)C(=O)[C@@]2(O)C(O)=C3C(=O)c4c(O)ccc(-c5cccc(C(N)=O)c5)c4C[C@H]3C[C@@H]12 [AE]	4 (≈ 7.5 µM)	0.06 (≈ 0.112 µM)	0.06 (≈ 0.112 µM)	64 (≈ 120 µM)	> 15.7	> 15.7	>156.64	>156.64	4 (≈ 7.5 µM)	4 (≈ 7.5 µM)	64 (≈ 120 µM)	
CN(C)[C@@H]1C(O)=C(C(N)=O)C(=O)[C@@]2(O)C(O)=C3C(=O)c4c(O)ccc(-c5ccc(NC(=O)CNC(C)(C)C)cc5)c4C[C@H]3C[C@@H]12 [AF]	4 (≈ 6.47 µM)	0.06 (≈ 0.097 µM)	0.06 (≈ 0.097 µM)	2 (≈ 3.23 µM)	> 13.7	> 13.7	>137.36	>137.36				
COCCNCC(=O)c1ccc(O)c2c1C[C@H]1C[C@H]3[C@H](N(C)C)C(O)=C(C(N)=O)C(=O)[C@@]3(O)C(O)=C1C2=O [AG]	64 (≈ 121 µM)	4 (≈ 7.55 µM)	4 (≈ 7.55 µM)	64 (≈ 121 µM)	> 158	> 158	>157.68	>157.68	32 (≈ 60.4 µM)	32 (≈ 60.4 µM)	64 (≈ 121 µM)	
CN(C)CCNC(=O)c1ccc(O)c2c1C[C@H]1C[C@H]3[C@H](N(C)C)C(O)=C(C(N)=O)C(=O)[C@@]3(O)C(O)=C1C2=O [AH]	64 (≈ 121 µM)	16 (≈ 30.3 µM)	8 (≈ 15.1 µM)	64 (≈ 121 µM)	> 126	> 126	>125.56	>125.56	64 (≈ 121 µM)	64 (≈ 121 µM)	64 (≈ 121 µM)	
CN(C)[C@@H]1C(O)=C(C(N)=O)C(=O)[C@@]2(O)C(O)=C3C(=O)c4c(O)ccc(-c5ccccc5)c4C[C@H]3C[C@@H]12 [AQ]	0.25 (≈ 0.51 µM)	0.06 (≈ 0.122 µM)	0.06 (≈ 0.122 µM)	8 (≈ 16.3 µM)	6.06	6.91						
COC(=O)c1ccc(-c2ccc(O)c3c2C[C@H]2C[C@H]4[C@H](N(C)C)C(O)=C(C(N)=O)C(=O)[C@@]4(O)C(O)=C2C3=O)cc1 [AR]	0.315 (≈ 0.574 µM)	0.06 (≈ 0.109 µM)	0.25 (≈ 0.456 µM)		4.8	< 2.53						64 (≈ 117 µM)
CC(=O)c1cccc(-c2ccc(O)c3c2C[C@H]2C[C@H]4[C@H](N(C)C)C(O)=C(C(N)=O)C(=O)[C@@]4(O)C(O)=C2C3=O)c1 [AS]	0.5 (≈ 0.939 µM)	0.06 (≈ 0.113 µM)	0.06 (≈ 0.113 µM)	64 (≈ 120 µM)								
CC(C)OC(=O)c1cccc(-c2ccc(O)c3c2C[C@H]2C[C@H]4[C@H](N(C)C)C(O)=C(C(N)=O)C(=O)[C@@]4(O)C(O)=C2C3=O)c1 [AU]	1 (≈ 1.73 µM)	0.25 (≈ 0.434 µM)	0.5 (≈ 0.867 µM)	64 (≈ 111 µM)	4.56	6.12						
CN(C)[C@@H]1C(O)=C(C(N)=O)C(=O)[C@@]2(O)C(O)=C3C(=O)c4c(O)ccc(-c5ccc(CN6CCOCC6)o5)c4C[C@H]3C[C@@H]12 [AX]	4 (≈ 6.9 µM)	0.06 (≈ 0.104 µM)	0.06 (≈ 0.104 µM)	8 (≈ 13.8 µM)	27.1	> 32.6						
CN1CCN(Cc2ccc(-c3ccc(O)c4c3C[C@H]3C[C@H]5[C@@H](N(C)C)C(O)=C(C(N)=O)C(=O)[C@@]5(O)C(O)=C3C4=O)o2)CC1 [AY]	32 (≈ 54 µM)	0.5 (≈ 0.844 µM)	0.25 (≈ 0.422 µM)	64 (≈ 108 µM)	> 32	> 32						
CN(C)c1cc(-c2ccc(CN3CCN(CCO)CC3)o2)c(O)c2c1C[C@H]1C[C@H]3[C@H](N(C)C)C(O)=C(C(N)=O)C(=O)[C@@]3(O)C(O)=C1C2=O [BA]	64 (≈ 96.1 µM)	1 (≈ 1.5 µM)	2 (≈ 3 µM)	64 (≈ 96.1 µM)	> 111	> 111						
COCc1cccc(-c2ccc(O)c3c2C[C@H]2C[C@H]4[C@H](N(C)C)C(O)=C(C(N)=O)C(=O)[C@@]4(O)C(O)=C2C3=O)c1 [DB]	0.5 (≈ 0.935 µM)	0.06 (≈ 0.112 µM)	0.06 (≈ 0.112 µM)	64 (≈ 120 µM)	10.4	13.2						
